Results reported in patent publication US6936602B1, “Benzazepine derivatives, process for the preparation of the same and uses thereof” (Takeda Chemical Industries, Ltd., priority 1999, dated 2005).

Compound | melting point
CCCCOCCOc1ccc(-c2ccc3c(c2)C=C(C(=O)Nc2ccc(CN(C)C4CCOCC4)cc2)CCN3Cc2ccc(OC)cc2)cc1 [Compound 56, 7-(4-butoxyethoxyphenyl)-1-(4-methoxybenzyl)-N-[4-[[N-methyl-N-(tetrahydropyran-4-yl)amino]methyl]phenyl]-2,3-dihydro-1-benzazepine-4-carboxamide] | 151 to 152 °C
CCCOCCOc1ccc(-c2ccc3c(c2)C=C(C(=O)Nc2ccc(CN(C)C4CCOCC4)cc2)CCN3Cc2ccsc2)cc1 [Compound 57, N-[4-[[N-methyl-N-(tetrahydropyran-4-yl)amino]methyl]phenyl]-7-(4-propoxyethoxyphenyl)-1-(3-thienylmethyl)-2,3-dihydro-1-benzazepine-4-carboxamide] | 131.5 to 132.5 °C
CCCCOCCOc1ccc(-c2ccc3c(c2)C=C(C(=O)Nc2ccc(CN(C)C4CCOCC4)cc2)CCN3Cc2cccc(OCCC)c2)cc1 [Compound 64, 7-(4-butoxyethoxyphenyl)-N-[4-[[N-methyl-N-(tetrahydropyran-4-yl)amino]methyl]phenyl]-1-(3-propoxybenzyl)-2,3-dihydro-1-benzazepine-4-carboxamide] | 114.5 to 115.5 °C
CCCCOCCOc1ccc(-c2ccc3c(c2)C=C(C(=O)Nc2ccc(CN(C)C4CCOCC4)cc2)CCN3c2cccc(OC)c2)cc1 [Compound 40, 7-[4-(2-butoxyethoxy)phenyl]-1-(3-methoxyphenyl)-N-(4-[[N-methyl-N-(tetrahydro-2H-pyran-4-yl)amino]methyl]phenyl]-2,3-dihydro-1H-1-benzazepine-4-carboxamide] | 94 to 97 °C
CCCCOCCOc1ccc(-c2ccc3c(c2)C=C(C(=O)Nc2ccc(CN(C)C4CCOCC4)cc2)CCN3Cc2ccoc2)cc1 [Compound 62, 7-(4-butoxyethoxyphenyl)-1-(3-furylmethyl)-N-[4-[[N-methyl-N-(tetrahydropyran-4-yl)amino]methyl]phenyl]-2,3-dihydro-1-benzazepine-4-carboxamide] | 116 to 117 °C
CC(C)OCCOc1ccc(-c2ccc3c(c2)C=C(C(=O)N(c2ccc(CN(C)C4CCOCC4)cc2)S(C)(=O)=O)CCN3)cc1 [Compound 15, 1-methylsulfonyl N-[4-[[N-methyl-N-(tetrahydro-2H-pyran-4-yl)amino]methyl]phenyl]-7-[4-(2-propoxy)ethoxyphenyl]-2,3-dihydro-1H-1-benzazepine-4-carboxamide] | 161 to 162 °C
CCCCOCCOc1ccc(-c2ccc3c(c2)C=C(C(=O)Nc2ccc(CN(C)C4CCOCC4)cc2)CCN3Cc2ccccc2OC)cc1 [Compound 52, 7-(4-butoxyethoxyphenyl)-1-(2-methoxybenzyl)-N-[4-[[N-methyl-N-(tetrahydropyran-4-yl)amino]methyl]phenyl]-2,3-dihydro-1-benzazepine-4-carboxamide] | 111.5 to 112.5 °C
CCCCOCCOc1ccc(-c2ccc3c(c2)C=C(C(=O)Nc2ccc(CN(C)C4CCOCC4)cc2)CCN3C2CC2)cc1 [Compound 31, 7-[4-(2-butoxyethoxy)phenyl]-1-cyclopropyl-N-[4-[[N-methyl-N-(tetrahydro-2H-pyran-4-yl)amino]methyl]phenyl]-2,3-dihydro-1H-1-benzazepine-4-carboxamide] | 117 to 120 °C
CCCN1CCC(C(=O)Nc2ccc(CN(C)C3CCOCC3)cc2)=Cc2cc(-c3ccc(OCCOCC)cc3)ccc21 [Compound 25, 7-[4-(2-ethoxyethoxy)phenyl]-N-[4-[[N-methyl-N-(tetrahydro-2H-pyran-4-yl)amino]methyl]phenyl]-1-propyl-2,3-dihydro-1H-1-benzazepine-4-carboxamide] | 144 to 147 °C
CCCOCCOc1ccc(-c2ccc3c(c2)C=C(C(=O)Nc2ccc(CN(C)C4CCOCC4)cc2)CCN3C(=O)CC)cc1 [Compound 29, 1-propionyl-7-[4-(2-propoxyethoxy)phenyl]-N-[4-[[N-methyl-N-(tetrahydro-2H-pyran-4-yl)amino]methyl]phenyl]-2,3-dihydro-1H-1-benzazepine-4-carboxamide] | 167 to 169 °C
